Assay results reported in patent US20240246916A1, “7-NITRO-8-HYDROXYQUINOLINE DERIVATIVES, PREPARATION METHOD THEREFORE AND MEDICAL USE THEREOF” (Jiangsu Yahong Meditech Co., Ltd., priority 2021, published 2024).
≈ marks a conversion by molar mass, not a printed value.

How the values were obtained:
Type in all cases: cell-based
[1] = tested on: Endothelial cell line HUVEC; experiment: Inhibitory activity on cells, CellTiter-Glo viability, HUVEC; details: Homo sapiens, 72 hours treatment
How it was run: (§1)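 24 h attachment; HUVEC 2000, UM-UC-3/RM-1 3000, LNCaP 5000 cells/well. 8-pt 2.5× dilution from 100 μmol, 72 h, 37 °C/5% CO2. CellTiter-Glo; IC50 from curve fit; max = cells + DMSO vehicle, min = medium only.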

[2] = tested on: Bladder cancer cell line UM-UC-3; experiment: Inhibitory activity on cancer cells, CellTiter-Glo viability, UM-UC-3; details: Homo sapiens, UMUC3, 72 hours treatment
How it was run: as §1

[3] = tested on: Prostate cancer cell line LNcaP; experiment: Inhibitory activity on cancer cells, CellTiter-Glo viability, LNcaP; details: Homo sapiens, 72 hours treatment
How it was run: as §1

[4] = tested on: Mouse prostate cancer cell line RM1; experiment: Inhibitory activity on cancer cells, CellTiter-Glo viability, RM1; details: 72 hours treatment
How it was run: as §1

[5] = tested on: Escherichia coli (carbapenem-resistant clinical isolate; ATCC25922); experiment: MIC by micro broth dilution (CLSI), Escherichia coli; details: for MIC50 / MIC90: ATCC25922, Clinical strain; for MIC50 / MIC90 / MIC: Escherichia coli; for MIC50: read-out: MIC50; for MIC90: read-out: MIC90; for MIC: Standard strain ATCC25922, read-out: MIC; for inhibitory effect against Escherichia coli compared with the reference drug nitroxoline: MIC comparison
How it was run: (§2)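 Duplicate same-patient isolates are excluded and quality control strains are run alongside. Inoculum prepared by direct colony suspension to 0.5 McFarland then diluted 100-fold to reach 10^5 CFU/mL in CAMHB. Drug spans 128 to 0.06 mg/L; incubation lasts 20 hours at 35±2° C.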

[6] = tested on: Acinetobacter baumannii (carbapenem-resistant clinical isolates; ATCC19606); experiment: MIC by micro broth dilution (CLSI), Acinetobacter baumannii; details: for MIC50 / MIC90: ATCC19606, Clinical strain; for MIC50 / MIC90 / MIC: Acinetobacter baumannii; for MIC50: read-out: MIC50; for MIC90: read-out: MIC90; for MIC: Standard strain ATCC19606, read-out: MIC; for inhibitory effect against Acinetobacter baumannii compared with the reference drug nitroxoline: MIC comparison
How it was run: as §2

[7] = tested on: Staphylococcus aureus (methicillin-resistant and sensitive clinical isolates; ATCC29213); experiment: MIC by micro broth dilution (CLSI), Staphylococcus aureus; details: for MIC50 / MIC90: Clinical strain; for MIC50: read-out: MIC50; for MIC90: read-out: MIC90; for MIC: Standard strain ATCC29213, read-out: MIC
How it was run: as §2

Compound | IC50 [2] [nM] | IC50 [3] [nM] | IC50 [4] [nM] | MIC50 [5] [µg/mL] | MIC90 [5] [µg/mL] | MIC [5] [µg/mL] | MIC50 [6] [µg/mL] | MIC90 [6] [µg/mL] | MIC [6] [µg/mL] | MIC50 [7] [µg/mL] | MIC90 [7] [µg/mL] | MIC [7] [µg/mL] | IC50 [1] [nM] | inhibitory effect against Acinetobacter baumannii compared with the reference drug nitroxoline [6] | inhibitory effect against Escherichia coli compared with the reference drug nitroxoline [5]
O=[N+]([O-])c1ccc2c(C3CCCCC3)ccnc2c1O [Example 32, 4-Cyclohexyl-7-nitroquinolin-8-ol] | 1090 | 230 | 600 | 64 (≈ 235 µM) | 64 (≈ 235 µM) | 64 (≈ 235 µM) | 32 (≈ 118 µM) | 32 (≈ 118 µM) | 32 (≈ 118 µM) | 1 (≈ 3.67 µM) | 1 (≈ 3.67 µM) | 1 (≈ 3.67 µM) | 890 |  | 
O=[N+]([O-])c1ccc2c(-c3ccccc3)ccnc2c1O [Example 22, 4-Phenyl-7-nitroquinolin-8-ol] | 1990 | 2310 | 2300 | 128 (≈ 481 µM) | 128 (≈ 481 µM) | > 128 | 128 (≈ 481 µM) | > 128 | 128 (≈ 481 µM) | 2 (≈ 7.51 µM) | 32 (≈ 120 µM) | 2 (≈ 7.51 µM) | 1460 |  | 
CN1CCN(c2ccnc3c(O)c([N+](=O)[O-])cc(Cl)c23)CC1 [Example 40] | 24600 | 12600 | 11500 | 128 (≈ 397 µM) | > 128 | 64 (≈ 198 µM) | 128 (≈ 397 µM) | > 128 | > 128 | 32 (≈ 99.1 µM) | 32 (≈ 99.1 µM) | 32 (≈ 99.1 µM) | 19100 |  | 
COC(=O)N1CCN(c2ccnc3c(O)c([N+](=O)[O-])cc(Cl)c23)CC1 [Example 31, Methyl 4-(5-chloro-8-hydroxy-7-nitroquinolin-4-yl)-piperazine-1-carboxylate] | 940 | 960 | 460 | > 128 | > 128 | > 128 | > 128 | > 128 | > 128 | > 128 | > 128 | > 128 | 1630 |  | 
O=[N+]([O-])c1cc(Cl)c2c(Cl)ccnc2c1O [Example 29, 4,5-dichloro-7-nitroquinolin-8-ol] | 9110 | 7030 | 6500 | 4 (≈ 15.4 µM) | 8 (≈ 30.9 µM) | 4 (≈ 15.4 µM) | 2 (≈ 7.72 µM) | 4 (≈ 15.4 µM) | 2 (≈ 7.72 µM) | 0.5 (≈ 1.93 µM) | 1 (≈ 3.86 µM) | 1 (≈ 3.86 µM) | 6220 | comparable to that of the reference drug nitroxoline | comparable to that of the reference drug nitroxoline
O=[N+]([O-])c1ccc2c(O)ccnc2c1O [Example 30, 7-Nitroquinoline-4,8-diol] | > 100000 | > 100000 | > 100000 | > 128 | > 128 | > 128 | > 128 | > 128 | > 128 | > 128 | > 128 | > 128 | > 100000 |  | 
CC1(C)CCN(c2ccnc3c(O)c([N+](=O)[O-])cc(Cl)c23)CC1 [Example 41, 5-Chloro-4-(4,4-dimethylpiperidin-1-yl)-7-nitroquinolin-8-ol] | 1030 | 480 | 2020 | > 128 | > 128 | > 128 | > 128 | > 128 | > 128 | 32 (≈ 95.3 µM) | 32 (≈ 95.3 µM) | 32 (≈ 95.3 µM) | 2020 |  | 
O=[N+]([O-])c1cc(Cl)c2c(N3CCC(C(F)(F)F)CC3)ccnc2c1O [Example 39, 5-Chloro-7-nitro-4-(4-(trifluoromethyl)piperidin-1-yl)quinolin-8-ol] | 950 | 430 | 1250 | > 128 | > 128 | > 128 | > 128 | > 128 | > 128 | 4 (≈ 10.6 µM) | 8 (≈ 21.3 µM) | 4 (≈ 10.6 µM) | 1110 |  | 

Second part, led by results:

IC50 [2] [nM] | IC50 [3] [nM] | IC50 [4] [nM] | MIC50 [5] [µg/mL] | MIC90 [5] [µg/mL] | MIC [5] [µg/mL] | MIC50 [6] [µg/mL] | MIC90 [6] [µg/mL] | MIC [6] [µg/mL] | MIC50 [7] [µg/mL] | MIC90 [7] [µg/mL] | MIC [7] [µg/mL] | Compound | IC50 [1] [nM] | inhibitory effect against Acinetobacter baumannii compared with the reference drug nitroxoline [6] | inhibitory effect against Escherichia coli compared with the reference drug nitroxoline [5]
5290 | 5220 | 4260 | > 128 | > 128 | > 128 | > 128 | > 128 | > 128 | 16 (≈ 59.6 µM) | 32 (≈ 119 µM) | 16 (≈ 59.6 µM) | CCOc1ccnc2c(O)c([N+](=O)[O-])cc(Cl)c12 [Example 61, 5-Chloro-4-ethoxy-7-nitroquinolin-8-ol] | 2580 |  | 
12300 | 6260 | 10600 | 128 (≈ 447 µM) | 128 (≈ 447 µM) | 128 (≈ 447 µM) | 128 (≈ 447 µM) | 128 (≈ 447 µM) | 128 (≈ 447 µM) | 8 (≈ 27.9 µM) | 8 (≈ 27.9 µM) | 8 (≈ 27.9 µM) | O=[N+]([O-])c1cc(Cl)c2c(OCCF)ccnc2c1O [Example 43, 5-Chloro-4-(2-fluoroethoxy)-7-nitroquinolin-8-ol] | 7540 |  | 
5040 | 2310 | 2630 | 8 | 64 | 8 | 8 | 32 | 2 | 1 | 2 | 1 | Cl.O=[N+]([O-])c1cc(Cl)c2c(C(F)(F)F)ccnc2c1O [Example 73, 5-chloro-7-nitro-4-(trifluoromethyl)-quinolin-8-ol hydrochloride] | 3450 | comparable to that of the reference drug nitroxoline | 
4710 | 580 | 1420 | > 128 | > 128 | > 128 | > 128 | > 128 | > 128 | 64 (≈ 168 µM) | 128 (≈ 336 µM) | 128 (≈ 336 µM) | CCOC(=O)N1CCN(c2ccnc3c(O)c([N+](=O)[O-])cc(Cl)c23)CC1 [Example 52, Ethyl 4-(5-chloro-8-hydroxy-7-nitroquinolin-4-yl)piperazine-1-carboxylate] | 530 |  | 
1490 | 1500 | 1460 | 128 (≈ 415 µM) | 128 (≈ 415 µM) | 128 (≈ 415 µM) | > 128 | > 128 | 128 (≈ 415 µM) | 16 (≈ 51.8 µM) | 16 (≈ 51.8 µM) | 16 (≈ 51.8 µM) | O=[N+]([O-])c1cc(Cl)c2c(OC3CCCC3)ccnc2c1O [Example 59, 5-Chloro-4-(cyclopentyloxy)-7-nitroquinolin-8-ol] | 780 |  | 
11200 | 2490 | 4820 | 8 (≈ 31 µM) | 8 (≈ 31 µM) | 4 (≈ 15.5 µM) | 4 (≈ 15.5 µM) | 4 (≈ 15.5 µM) | 4 (≈ 15.5 µM) | 2 (≈ 7.75 µM) | 4 (≈ 15.5 µM) | 2 (≈ 7.75 µM) | O=[N+]([O-])c1ccc2c(C(F)(F)F)ccnc2c1O [Example 62, 7-Nitro-4-trifluoromethylquinolin-8-ol] | 3540 |  | comparable to that of the reference drug nitroxoline
